Data taken from patent US20250120975A1, “INTEGRIN INHIBITORS FOR TREATMENT OF PRIMARY SCLEROSING CHOLANGITIS” (Pliant Therapeutics, Inc., priority 2023, published 2025).

Test system: PCLivS from human liver tissue with biliary fibrosis (PSC, PBC)
Assay: Fibrotic gene expression (NanoString) in precision cut liver slices
Type: cell-based
Conditions: PCLivS from a single PSC liver, 2 days
Excerpt: A human liver tissue explant was obtained from a PSC patient undergoing liver transplantation.
Slicing: To slice, 8-mm cores were punctured from the liver tissue and were stored in ice cold UW solution until slicing. A tissue core was glued onto the center of the plunger of the specimen syringe for slicing. The core was embedded in 2% low gelling temperature agarose made up in milliQ water. The thickness of the slice was adjusted to 400 μm and was sectioned into oxygenated KHB occurs. The slices were stored in cold UW solution on ice until all slices were cut.
Culture: The compounds were diluted to 1000× concentration in 100% DMSO. The compounds were diluted in a medium with a final concentration of 0.1% DMSO before transferring the slices and making a fresh medium for each 24-H medium change. Before being used for slice culture, all media was equilibrated in the incubator at culture conditions for 30 minutes. After all slices have been cut, all slices were transferred to wells prefilled with oxygenated, warmed, and equilibrated WEGG. The slices were incubated for 1 hour in the incubator at a temperature of 37° C., 5% CO2, 80% 02, 100% humidity on shaking platform set at 55 rpm. After this one-hour recovery, the slices were transferred to wells prefilled with oxygenated, warmed, and equilibrated WEGG with appropriate treatments. The slices were distributed into the treatment groups to account for inter-core variability. The slices were cultured at 37° C., 80% 02, 5% CO2, 100% humidity on shaking platform set at 55 rpm. The medium was changed after 24 hours.
The slices were removed from the well and rinsed in PBS. Excess liquid was removed. The slices were transferred to a microtube pooling all three slices from the same treatment into one tube. The pooled slices were snap frozen in liquid nitrogen and placed on dry ice until all samples were collected and then transferred to −80° C. for storage. For media collection, 140 μL of medium was pooled from each well within a treatment group and transferred to a 96-well Axygen plate. After sealing the plate, spin down occurred at 4000×g for 10 minutes at 4° C. Then, 130 μL aliquots were transferred into 3 new plates. The plates were sealed and stored at −80° C.
(S)-4-((2-methoxyethyl)(4-(5,6,7,8-tetrahydro-1,8-naphthyridin-2-yl)butyl)amino)-2-(quinazolin-4-ylamino)butanoic acid was tested at 100 nM, 1 μM, and 10 μM. OCA, an FXR agonist in clinical trials for PSC, was used at 250 nM and 2.5 μM reflecting Cmax levels observed in clinical trials. An ALK5 inhibitor (R268712) was used at 1 μM (400 times its IC50 per manufacturer) to target max inhibition of the ALK5 receptor.
Methods: Lysis buffer was made with one third RLT buffer in RNAse-free water and 2 mg/mL proteinase K. About 100-200 μL lysis buffer was added to each pool of 3 liver slices. Samples were incubated at 55° C. in the bead bath for 2 hours and 45 minutes, vortexing every 30 minute. Samples were centrifuged and the supernatant aliquoted in 15 μL aliquots into 96-well Axygen plates.
Methods: nCounter PlexSet was run according to standard protocol. Briefly, probe A and probe B were diluted with TE-tween to Working Probe Pools and mixed with hybridization buffer. This master mix was added to the A-H PlexSets and mixed. Each PlexSet was added across a row to a 96 well qPCR plate and proteinase K was added to a final concentration of 2 mg/mL. Lysate from samples was added to appropriate wells and mixed. The plate was sealed, spun, and placed in thermocycler at 67° C. for 16 hours. Hybridized samples were pooled down columns and 35 μL were loaded on a Sprint Cartridge and run on the nCounter Sprint. Data analysis was performed in nSolver using background thresholding based on negative controls, positive control normalization, reference sample normalization and normalization to housekeeping genes (GUSB, HPRT1, POLR1B, RPLP0, SRFS4, and/or UBC). […]

SMILES | % Inhibition of expression COL1A1 (1 μM) [%] | % Inhibition of expression COL1A2 (1 μM) [%] | % Inhibition of expression COL1A1 (250 nM) [%] | % Inhibition of expression COL1A2 (250 nM) [%] | % Inhibition of expression COL1A1 (2.5 μM) [%] | % Inhibition of expression COL1A2 (2.5 μM) [%]
Cc1cccc(-c2[nH]ncc2-c2ccc(F)c(-c3cnn(CCO)c3)c2)n1 [Alk5 Inh., reference compound] | 79 | 46 | – | – | – | –
CC[C@H]1[C@@H](O)[C@@H]2[C@H](CC[C@]3(C)[C@@H]([C@H](C)CCC(=O)O)CC[C@@H]23)[C@@]2(C)CC[C@@H](O)C[C@@H]12 [OCA, obeticholic acid, reference compound] | – | – | 44 | 19 | 35 | 15
